Results: patent US9073855B2, “BCL-2 selective apoptosis-inducing agents for the treatment of cancer and immune diseases” (AbbVie Inc., priority 2008, dated 2015)

Experiments:
GST-Bcl-2 = GST-Bcl-2 (Homo sapiens, UniProt P10415); experiment: TR-FRET binding assay, GST-Bcl-2 with F-Bak peptide probe; details: TR-FRET Binding Affinity, GST-Bcl-2, F-Bak peptide probe
Method in brief: (§1)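 Ki was derived with Wang's equation for competitive binding of two ligands. The read-out was time-resolved fluorescence after a 3 h room-temperature incubation, using a Tb-labelled antibody donor and the F-Bak peptide acceptor (excitation 340/35 nm). Test compounds entered as DMSO serial dilutions starting at 50 μM, which was the 2× concentration.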

GST-Bcl-XL = GST-Bcl-XL (Homo sapiens, UniProt Q07817); experiment: TR-FRET binding assay, GST-Bcl-XL with F-Bak peptide probe; details: TR-FRET Binding Affinity, GST-Bcl-XL, F-Bak peptide probe
Method in brief: as §1

FL5.12/Bcl-2 cells = experiment: FL5.12/Bcl-2 cell viability assay under IL-3 withdrawal (CellTitre Glo); type: cell-based, murine; details: Mus musculus, IL-3 withdrawn 48 hrs, then 24 hrs with compound
Method in brief: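 Murine IL-3-dependent FL5.12 cells stably overexpressing Bcl-2 were deprived of IL-3 (WEHI-3B conditioned medium) for 48 h, then exposed to various compound concentrations for 24 h at 37 °C. Viability read by CellTiter-Glo luminescence.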

GST-Bcl-XL, sequence (Q07817 whole entry): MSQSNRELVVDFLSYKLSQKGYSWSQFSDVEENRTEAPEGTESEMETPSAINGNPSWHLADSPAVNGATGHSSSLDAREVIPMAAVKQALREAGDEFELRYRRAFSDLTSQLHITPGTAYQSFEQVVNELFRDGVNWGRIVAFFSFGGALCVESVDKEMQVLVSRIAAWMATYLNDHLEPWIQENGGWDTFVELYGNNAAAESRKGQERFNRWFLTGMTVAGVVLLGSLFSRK
GST-Bcl-2, sequence (P10415 whole entry): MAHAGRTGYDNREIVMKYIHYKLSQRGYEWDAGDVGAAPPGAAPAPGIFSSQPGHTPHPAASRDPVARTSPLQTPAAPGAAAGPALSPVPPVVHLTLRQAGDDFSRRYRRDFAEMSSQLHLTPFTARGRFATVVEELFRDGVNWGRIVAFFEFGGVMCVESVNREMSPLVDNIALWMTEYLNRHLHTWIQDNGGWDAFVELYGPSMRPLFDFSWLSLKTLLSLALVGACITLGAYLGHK

| SMILES | Ki (GST-Bcl-2) | Ki (GST-Bcl-XL) | EC50 (FL5.12/Bcl-2 cells) |
| --- | --- | --- | --- |
| CC1(C)CCC(CN2CCN(c3ccc(C(=O)NS(=O)(=O)c4ccc(OC[C@@H]5COCCO5)c([N+](=O)[O-])c4)c(Oc4ccc5[nH]ccc5c4)c3)CC2)=C(c2ccc(Cl)cc2)C1 [Example 347, 4-(4-{[2-(4-chlorophenyl)-4,4-dimethylcyclohex-1-en-1-yl]methyl}piperazin-1-yl)-N-({4-[(2S)-1,4-dioxan-2-ylmethoxy]-3-nitrophenyl}sulfonyl)-2-(1H-indol-5-yloxy)benzamide] | 0.243 nM | 306 nM | 46.8 nM |
| CC1(C)CCC(CN2CCN(c3ccc(C(=O)NS(=O)(=O)c4cnc(OCC5CCOCC5)c(-c5nccs5)c4)c(Oc4ccc5[nH]ccc5c4)c3)CC2)=C(c2ccc(Cl)cc2)C1 [Example 331, 4-(4-{[2-(4-chlorophenyl)-4,4-dimethylcyclohex-1-en-1-yl]methyl}piperazin-1-yl)-2-(1H-indol-5-yloxy)-N-{[6-(tetrahydro-2H-pyran-4-ylmethoxy)-5-(1,3-thiazol-2-yl)pyridin-3-yl]sulfonyl}benzamide] | 8.27 nM | > 660 nM | > 500 nM |
| CC1(C)CCC(CN2CCN(c3ccc(C(=O)NS(=O)(=O)c4ccc(Nc5ccc(O)cc5)c([N+](=O)[O-])c4)c(Oc4ccc5[nH]ccc5c4)c3)CC2)=C(c2ccc(Cl)cc2)C1 [Example 375, 4-(4-{[2-(4-chlorophenyl)-4,4-dimethylcyclohex-1-en-1-yl]methyl}piperazin-1-yl)-N-({4-[(4-hydroxyphenyl)amino]-3-nitrophenyl}sulfonyl)-2-(1H-indol-5-yloxy)benzamide] | 11.3 nM | > 660 nM | > 500 nM |
| CC(=O)N1CCC(Nc2ccc(S(=O)(=O)NC(=O)c3ccc(N4CCN(CC5=C(c6ccc(Cl)cc6)CC(C)(C)CC5)CC4)cc3Oc3cccc4[nH]ccc34)cc2[N+](=O)[O-])CC1 [Example 337, N-({4-[(1-acetylpiperidin-4-yl)amino]-3-nitrophenyl}sulfonyl)-4-(4-{[2-(4-chlorophenyl)-4,4-dimethylcyclohex-1-en-1-yl]methyl}piperazin-1-yl)-2-(1H-indol-4-yloxy)benzamide] | 0.535 nM | > 660 nM | 124 nM |
| CC1(C)CCC(CN2CCN(c3ccc(C(=O)NS(=O)(=O)c4ccc(OCC5(C)COC5)c([N+](=O)[O-])c4)c(Oc4ccc5[nH]ccc5c4)c3)CC2)=C(c2ccc(Cl)cc2)C1 [Example 286, 4-(4-{[2-(4-chlorophenyl)-4,4-dimethylcyclohex-1-en-1-yl]methyl}piperazin-1-yl)-2-(1H-indol-5-yloxy)-N-({4-[(3-methyloxetan-3-yl)methoxy]-3-nitrophenyl}sulfonyl)benzamide] | 0.567 nM | > 660 nM | 279 nM |
| CN1CC(Nc2ccc(S(=O)(=O)NC(=O)c3ccc(N4CCN(CC5=C(c6ccc(Cl)cc6)CC(C)(C)CC5)CC4)cc3Oc3ccc4[nH]ccc4c3)cc2[N+](=O)[O-])CC1=O (stereo not drawn) [Example 281, 4-(4-{[2-(4-chlorophenyl)-4,4-dimethylcyclohex-1-en-1-yl]methyl}piperazin-1-yl)-2-(1H-indol-5-yloxy)-N-({4-[(1-methyl-5-oxopyrrolidin-3-yl)amino]-3-nitrophenyl}sulfonyl)benzamide] | 0.076 nM | 119 nM | 60.2 nM |
| CC1(C)CCC(CN2CCN(c3ccc(C(=O)NS(=O)(=O)c4ccc(NC[C@H]5CC[C@@H](O)CC5)c([N+](=O)[O-])c4)c(Oc4ccc5[nH]ccc5c4)c3)CC2)=C(c2ccc(Cl)cc2)C1 [Example 312, Cis-4-(4-{[2-(4-chlorophenyl)-4,4-dimethylcyclohex-1-en-1-yl]methyl}piperazin-1-yl)-N-[(4-{[(4-hydroxycyclohexyl)methyl]amino}-3-nitrophenyl)sulfonyl]-2-(1H-indol-5-yloxy)benzamide] | 0.34 nM | > 660 nM | 19.2 nM |
| Cn1ncc(-c2ccc(Cl)cc2)c1CN1CCN(c2ccc(C(=O)NS(=O)(=O)c3ccc(NCC4CCOCC4)c([N+](=O)[O-])c3)c(Oc3ccc4[nH]ccc4c3)c2)CC1 [Example 285, 4-(4-{[4-(4-chlorophenyl)-1-methyl-1H-pyrazol-5-yl]methyl}piperazin-1-yl)-2-(1H-indol-5-yloxy)-N-({3-nitro-4-[(tetrahydro-2H-pyran-4-ylmethyl)amino]phenyl}sulfonyl)benzamide] | 6.99 nM | > 660 nM | > 500 nM |
| O=C(NS(=O)(=O)c1ccc(NCC2CCOCC2)c([N+](=O)[O-])c1)c1ccc(N2CCN(Cc3cc(OCCO)ccc3-c3ccc(Cl)cc3)CC2)cc1Oc1cccc2[nH]ccc12 [Example 213, 4-(4-{[4′-chloro-4-(2-hydroxyethoxy)-1,1′-biphenyl-2-yl]methyl}piperazin-1-yl)-2-(1H-indol-4-yloxy)-N-({3-nitro-4-[(tetrahydro-2H-pyran-4-ylmethyl)amino]phenyl}sulfonyl)benzamide] | < 0.01 nM | > 660 nM | 432 nM |
| CC1(C)CCC(CN2CCN(c3ccc(C(=O)NS(=O)(=O)c4ccc(NC5CCN(CCO)CC5)c([N+](=O)[O-])c4)c(Oc4cccc5[nH]ccc45)c3)CC2)=C(c2ccc(Cl)cc2)C1 [Example 191, 4-(4-{[2-(4-chlorophenyl)-4,4-dimethylcyclohex-1-en-1-yl]methyl}piperazin-1-yl)-N-[(4-{[1-(2-hydroxyethyl)piperidin-4-yl]amino}-3-nitrophenyl)sulfonyl]-2-(1H-indol-4-yloxy)benzamide] | 0.073 nM | 9.16 nM | 11.7 nM |
| CN1CCC(Nc2ccc(S(=O)(=O)NC(=O)c3ccc(N4CCN(CC5=C(c6ccc(Cl)cc6)CCC(O)C5)CC4)cc3Oc3ccc4[nH]ccc4c3)cc2[N+](=O)[O-])CC1 (stereo not drawn) [Example 224, 4-(4-{[2-(4-chlorophenyl)-5-hydroxycyclohex-1-en-1-yl]methyl}piperazin-1-yl)-2-(1H-indol-5-yloxy)-N-({4-[(1-methylpiperidin-4-yl)amino]-3-nitrophenyl}sulfonyl)benzamide] | < 0.01 nM | 0.999 nM | 21.2 nM |
| CC1(C)CCC(CN2CCN(c3ccc(C(=O)NS(=O)(=O)c4ccc(OCC5(F)CCOCC5)c([N+](=O)[O-])c4)c(Oc4ccc5[nH]ccc5c4)c3)CC2)=C(c2ccc(Cl)cc2)C1 [Example 327, 4-(4-{[2-(4-chlorophenyl)-4,4-dimethylcyclohex-1-en-1-yl]methyl}piperazin-1-yl)-N-({4-[(4-fluorotetrahydro-2H-pyran-4-yl)methoxy]-3-nitrophenyl}sulfonyl)-2-(1H-indol-5-yloxy)benzamide] | 0.031 nM | 95.6 nM | 6.57 nM |
| COC1CCN(c2ccc(S(=O)(=O)NC(=O)c3ccc(N4CCN(CC5=C(c6ccc(Cl)cc6)CC(C)(C)CC5)CC4)cc3Oc3ccc4[nH]ccc4c3)cc2[N+](=O)[O-])CC1 [Example 271, 4-(4-{[2-(4-chlorophenyl)-4,4-dimethylcyclohex-1-en-1-yl]methyl}piperazin-1-yl)-2-(1H-indol-5-yloxy)-N-{[4-(4-methoxypiperidin-1-yl)-3-nitrophenyl]sulfonyl}benzamide] | 6.16 nM | > 660 nM | > 500 nM |
| CC1(C)CCC(CN2CCN(c3ccc(C(=O)NS(=O)(=O)c4ccc(NCCN5CCOCC5)c(S(=O)(=O)C(F)(F)F)c4)c(Oc4ccc5[nH]ccc5c4)c3)CC2)=C(c2ccc(Cl)cc2)C1 [Example 351, 4-(4-{[2-(4-chlorophenyl)-4,4-dimethylcyclohex-1-en-1-yl]methyl}piperazin-1-yl)-2-(1H-indol-5-yloxy)-N-({4-[(2-morpholin-4-ylethyl)amino]-3-[(trifluoromethyl)sulfonyl]phenyl}sulfonyl)benzamide] | 1.58 nM | > 660 nM | 345 nM |
| O=C(NS(=O)(=O)c1ccc(NCC2CCOCC2)c([N+](=O)[O-])c1)c1ccc(N2CCN(Cc3ccc(C(F)(F)F)cc3-c3ccc(Cl)cc3)CC2)cc1Oc1ccc2[nH]ccc2c1 [Example 339, 4-(4-{[4′-chloro-5-(trifluoromethyl)-1,1′-biphenyl-2-yl]methyl}piperazin-1-yl)-2-(1H-indol-5-yloxy)-N-({3-nitro-4-[(tetrahydro-2H-pyran-4-ylmethyl)amino]phenyl}sulfonyl)benzamide] | 14.1 nM | > 660 nM | > 500 nM |
| COCCOCCSc1ccc(S(=O)(=O)NC(=O)c2ccc(N3CCN(CC4=C(c5ccc(Cl)cc5)CC(C)(C)CC4)CC3)cc2Oc2ccc3[nH]ccc3c2)cc1[N+](=O)[O-] [Example 380, 4-(4-{[2-(4-chlorophenyl)-4,4-dimethylcyclohex-1-en-1-yl]methyl}piperazin-1-yl)-2-(1H-indol-5-yloxy)-N-[(4-{[2-(2-methoxyethoxy)ethyl]thio}-3-nitrophenyl)sulfonyl]benzamide] | 0.083 nM | 175 nM | 68.5 nM |
| CC1(C)CCC(CN2CCN(c3ccc(C(=O)NS(=O)(=O)c4ccc(NCCCN5CCOCC5)c(S(=O)(=O)C(F)(F)F)c4)c(Oc4cccc5[nH]ccc45)c3)CC2)=C(c2ccc(Cl)cc2)C1 [Example 349, 4-(4-{[2-(4-chlorophenyl)-4,4-dimethylcyclohex-1-en-1-yl]methyl}piperazin-1-yl)-2-(1H-indol-4-yloxy)-N-({4-[(3-morpholin-4-ylpropyl)amino]-3-[(trifluoromethyl)sulfonyl]phenyl}sulfonyl)benzamide] | 0.467 nM | 24.2 nM | 146 nM |
